The record followed here is EP4755888A1 (ILAb Co., Ltd., priority 2023, dated 2025).

Each structure is given as a SMILES string. pIC50: −log10 of the molar value.

The assay concerns the target PD-1/PD-L1 (Homo sapiens, UniProt Q9NZQ7). Put plainly: TR-FRET PD-1/PD-L1 binding inhibition at the molecular level (free proteins). To be noted: Tag1-PD-L1 and Tag2-PD-1 proteins, twelve concentrations from 200 nM, 2 hours at room temperature, read-out: FRET assay (IC50). In outline:
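HTRF read-out at 665/620 nm after 2 h at room temperature. Detection used anti-Tag1 Eu cryptate plus anti-Tag2 XL665 antibodies. Tagged PD-L1 and PD-1 proteins were pre-mixed with compound across twelve […] 1:2 dilutions starting at 200 nM.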
For orientation: TR-FRET usually uses a lanthanide donor and a delayed reading to cut background.

Chain of PD-1/PD-L1 (Q9NZQ7 19-238 limits assumed): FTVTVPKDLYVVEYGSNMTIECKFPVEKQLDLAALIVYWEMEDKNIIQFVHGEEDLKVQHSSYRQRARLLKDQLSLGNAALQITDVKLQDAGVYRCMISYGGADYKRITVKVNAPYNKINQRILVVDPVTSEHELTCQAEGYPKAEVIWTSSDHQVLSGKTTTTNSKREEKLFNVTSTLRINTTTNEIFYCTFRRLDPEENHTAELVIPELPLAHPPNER

The term pIC50 denotes −log10 of the IC50, conventionally taken in molar units. `COc1cc(-c2cccc(-c3cccc(NC(=O)c4cc5n(n4)CCCC5O)c3Cl)c2Cl)cc(F)c1CNCCNC(C)=O` (centres unmarked) [Compound 116, N-(4"-(((2-acetamidoethyl)amino)methyl)-2,2'-dichloro-3"-fluoro-5"-methoxy-[1,1':3',1"-terphenyl]-3-yl)-4-hydroxy-4,5,6,7-tetrahydropyrazolo[1,5-a]pyridine-2-carboxamide]: the pIC50 was 7.00 to 8.00.
Under `COc1cc(-c2cccc(-c3cccc(NC(=O)c4cc5n(n4)CCCC5O)c3Cl)c2Cl)cc(F)c1CN1CC[C@@H](O)C1` (stereo partly drawn) [Compound 117, N-(2,2'-dichloro-3"-fluoro-4"-(((R)-3-hydroxypyrrolidin-1-yl)methyl)-5"-methoxy-[1,1':3',1"-terphenyl]-3-yl)-4-hydroxy-4,5,6,7-tetrahydropyrazolo[1,5-a]pyridine-2-carboxamide] stands 7.00 to 8.00; under `COc1cc(-c2cccc(-c3cccc(NC(=O)c4cc5n(n4)CCCC5O)c3Cl)c2Cl)cc(F)c1CNCCO` (centres unmarked) [Compound 118, N-(2,2'-dichloro-3"-fluoro-4"-(((2-hydroxyethyl)amino)methyl)-5"-methoxy-[1,1':3',1"-terphenyl]-3-yl)-4-hydroxy-4,5,6,7-tetrahydropyrazolo[1,5-a]pyridine-2-carboxamide], 7.00 to 8.00.
For the compound `COc1cc(-c2cccc(-c3cccc(NC(=O)c4cc5n(n4)CCCC5O)c3Cl)c2Cl)cc(F)c1CNC[C@@H]1CCC(=O)N1` (stereo partly drawn) [Compound 119, N-(2,2'-dichloro-3"-fluoro-5"-methoxy-4"-(((((S)-5-oxopyrrolidin-2-yl)methyl)amino)methyl)-[1,1':3',1"-terphenyl]-3-yl)-4-hydroxy-4,5,6,7-tetrahydropyrazolo[1,5-a]pyridine-2-carboxamide], the pIC50 is 7.00 to 8.00.
As for `COc1cc(-c2cccc(-c3cccc(NC(=O)c4cc5n(n4)CCCC5NCCO)c3Cl)c2Cl)cc(F)c1CNCCNC(C)=O` (centres unmarked) [Compound 120, N-(4"-(((2-acetamidoethyl)amino)methyl)-2,2'-dichloro-3"-fluoro-5"-methoxy-[1,1':3',1"-terphenyl]-3-yl)-4-((2-hydroxyethyl)amino)-4,5,6,7-tetrahydropyrazolo[1,5-a]pyridine-2-carboxamide], the pIC50 was over 8.00.
Under `COc1cc(-c2cccc(-c3cccc(NC(=O)c4cc5n(n4)CCCC5N4CC[C@@H](O)C4)c3Cl)c2Cl)cc(F)c1CNCCNC(C)=O` (stereo partly drawn) [Compound 121, N-(4"-(((2-acetamidoethyl)amino)methyl)-2,2'-dichloro-3"-fluoro-5"-methoxy-[1,1':3',1"-terphenyl]-3-yl)-4-((R)-3-hydroxypyrrolidin-1-yl)-4,5,6,7-tetrahydropyrazolo[1,5-a]pyridine-2-carboxamide] stands over 8.00; under `COc1cc(-c2cccc(-c3cccc(NC(=O)c4cc5n(n4)CCCC5NCCO)c3Cl)c2Cl)cc(F)c1CN1CC[C@@H](O)C1` (stereo partly drawn) [Compound 122, N-(2,2'-dichloro-3"-fluoro-4"-(((R)-3-hydroxypyrrolidin-1-yl)methyl)-5"-methoxy-[1,1':3',1"-terphenyl]-3-yl)-4-((2-hydroxyethyl)amino)-4,5,6,7-tetrahydropyrazolo[1,5-a]pyridine-2-carboxamide], over 8.00; under `COc1cc(-c2cccc(-c3cccc(NC(=O)c4cc5n(n4)CCCC5N4CC[C@@H](O)C4)c3Cl)c2Cl)cc(F)c1CN1CC[C@@H](O)C1` (stereo partly drawn) [Compound 123, N-(2,2'-dichloro-3"-fluoro-4"-(((R)-3-hydroxypyrrolidin-1-yl)methyl)-5"-methoxy-[1,1':3',1 "-terphenyl]-3-yl)-4-((R)-3-hydroxypyrrolidin-1-yl)-4,5,6,7-tetrahydropyrazolo[1,5-a]pyridine-2-carboxamide], over 8.00.
Under `COc1cc(-c2cccc(-c3cccc(NC(=O)c4cc5n(n4)CCCC5NCCO)c3Cl)c2Cl)cc(F)c1CNCCO` (centres unmarked) [Compound 124, N-(2,2'-dichloro-3"-fluoro-4"-(((2-hydroxyethyl)amino)methyl)-5"-methoxy-[1,1':3',1"-terphenyl]-3-yl)-4-((2-hydroxyethyl)amino)-4,5,6,7-tetrahydropyrazolo[1,5-a]pyridine-2-carboxamide] stands over 8.00.
Next, `COc1cc(-c2cccc(-c3cccc(NC(=O)c4cc5n(n4)CCCC5N4CC[C@@H](O)C4)c3Cl)c2Cl)cc(F)c1CNCCO` (stereo partly drawn) [Compound 125, N-(2,2'-dichloro-3"-fluoro-4"-(((2-hydroxyethyl)amino)methyl)-5"-methoxy-[1,1':3',1"-terphenyl]-3-yl)-4-((R)-3-hydroxypyrrolidin-1-yl)-4,5,6,7-tetrahydropyrazolo[1,5-a]pyridine-2-carboxamide]: over 8.00; `COc1cc(-c2cccc(-c3cccc(NC(=O)c4cc5n(n4)CCCC5NCCO)c3Cl)c2Cl)cc(F)c1CNC[C@@H]1CCC(=O)N1` (stereo partly drawn) [Compound 126, N-(2,2'-dichloro-3"-fluoro-5"-methoxy-4"-(((((S)-5-oxopyrrolidin-2-yl)methyl)amino)methyl)-[1,1':3',1"-terphenyl]-3-yl)-4-((2-hydroxyethyl)amino)-4,5,6,7-tetrahydropyrazolo[1,5-a]pyridine-2-carboxamide]: 7.00 to 8.00; `COc1cc(-c2cccc(-c3cccc(NC(=O)c4cc5n(n4)CCCC5N4CC[C@@H](O)C4)c3Cl)c2Cl)cc(F)c1CNC[C@@H]1CCC(=O)N1` (stereo partly drawn) [Compound 127, N-(2,2'-dichloro-3"-fluoro-5"-methoxy-4"-(((((S)-5-oxopyrrolidin-2-yl)methyl)amino)methyl)-[1,1':3',1"-terphenyl]-3-yl)-4-((R)-3-hydroxypyrrolidin-1-yl)-4,5,6,7-tetrahydropyrazolo[1,5-a]pyridine-2-carboxamide]: 7.00 to 8.00.
Take `COc1cc(-c2cccc(-c3cccc(NC(=O)c4cc5n(n4)CCCC5N4CC[C@@H](O)C4)c3Cl)c2Cl)cc(F)c1CNC(C)(C)C(=O)O` (stereo partly drawn) [Compound 128, 2-(((2',2"-dichloro-3-fluoro-3"-(4-((R)-3-hydroxypyrrolidin-1-yl)-4,5,6,7-tetrahydropyrazolo[1,5-a]pyridine-2-carboxamido)-5-methoxy-[1,1':3',1"-terphenyl]-4-yl)methyl)amino)-2-methylpropanoic acid]: the negative logarithm of the IC50 (pIC50) is over 8.00.
Next, `Cc1c(NC(=O)c2cc3n(n2)CCCC3O)cccc1-c1cccc(Nc2nc(C(F)F)nc3cc(CN4CC[C@@H](O)C4)cnc23)c1C` (stereo partly drawn) [Compound 129, N-(3'-((2-(difluoromethyl)-7-(((R)-3-hydroxypyrrolidin-1-yl)methyl)pyrido[3,2-d]pyrimidin-4-yl)amino)-2,2'-dimethyl-[1,1'-biphenyl]-3-yl)-4-hydroxy-4,5,6,7-tetrahydropyrazolo[1,5-a]pyridine-2-carboxamide]: over 8.00; `CC(=O)NCCNC1CCCn2nc(C(=O)Nc3cccc(-c4cccc(Nc5nc(C(F)F)nc6cc(CN7CC[C@@H](O)C7)cnc56)c4C)c3C)cc21` (stereo partly drawn) [Compound 130, 4-((2-acetamidoethyl)amino)-N-(3'-((2-(difluoromethyl)-7-(((R)-3-hydroxypyrrolidin-1-yl)methyl)pyrido[3,2-d]pyrimidin-4-yl)amino)-2,2'-dimethyl-[1,1'-biphenyl]-3-yl)-4,5,6,7-tetrahydropyrazolo[1,5-a]pyridine-2-carboxamide]: 7.00 to 8.00; `Cc1c(NC(=O)c2cc3n(n2)CCCC3N2CC[C@@H](O)C2)cccc1-c1cccc(Nc2nc(C(F)F)nc3cc(CN4CC[C@@H](O)C4)cnc23)c1C` (stereo partly drawn) [Compound 131, N-(3'-((2-(difluoromethyl)-7-(((R)-3-hydroxypyrrolidin-1-yl)methyl)pyrido[3,2-d]pyrimidin-4-yl)amino)-2,2'-dimethyl-[1,1'-biphenyl]-3-yl)-4-((R)-3-hydroxypyrrolidin-1-yl)-4,5,6,7-tetrahydropyrazolo[1,5-a]pyridine-2-carboxamide]: over 8.00.
Under `Cc1c(NC(=O)c2cc3n(n2)CCCC3NCCO)cccc1-c1cccc(Nc2nc(C(F)F)nc3cc(CN4CC[C@@H](O)C4)cnc23)c1C` (stereo partly drawn) [Compound 132, N-(3'-((2-(difluoromethyl)-7-(((R)-3-hydroxypyrrolidin-1-yl)methyl)pyrido[3,2-d]pyrimidin-4-yl)amino)-2,2'-dimethyl-[1,1'-biphenyl]-3-yl)-4-((2-hydroxyethyl)amino)-4,5,6,7-tetrahydropyrazolo[1,5-a]pyridine-2-carboxamide] stands over 8.00.
As to `Cc1c(NC(=O)c2cc3n(n2)CCCC3N2CC[C@@H](C(=O)O)C2)cccc1-c1cccc(Nc2nc(C(F)F)nc3cc(CN4CC[C@@H](O)C4)cnc23)c1C` (stereo partly drawn) [Compound 133, (3R)-1-(2-((3'-((2-(difluoromethyl)-7-(((R)-3-hydroxypyrrolidin-1-yl)methyl)pyrido[3,2-d]pyrimidin-4-yl)amino)-2,2'-dimethyl-[1,1'-biphenyl]-3-yl)carbamoyl)-4,5,6,7-tetrahydropyrazolo[1,5-a]pyridin-4-yl)pyrrolidine-3-carboxylic acid], the pIC50 was over 8.00.
Under `Cc1c(NC(=O)c2cc3n(n2)CCCC3NCC(=O)O)cccc1-c1cccc(Nc2nc(C(F)F)nc3cc(CN4CC[C@@H](O)C4)cnc23)c1C` (stereo partly drawn) [Compound 134, 2-((2-((3'-((2-(difluoromethyl)-7-(((R)-3-hydroxypyrrolidin-1-yl)methyl)pyrido[3,2-d]pyrimidin-4-yl)amino)-2,2'-dimethyl-[1,1'-biphenyl]-3-yl)carbamoyl)-4,5,6,7-tetrahydropyrazolo[1,5-a]pyridin-4-yl)amino)acetic acid] stands 7.00 to 8.00; under `Cc1c(NC(=O)c2cc3n(n2)CCCC3N2CCC(O)CC2)cccc1-c1cccc(Nc2nc(C(F)F)nc3cc(CN4CC[C@@H](O)C4)cnc23)c1C` (stereo partly drawn) [Compound 135, N-(3'-((2-(difluoromethyl)-7-(((R)-3-hydroxypyrrolidin-1-yl)methyl)pyrido[3,2-d]pyrimidin-4-yl)amino)-2,2'-dimethyl-[1,1'-biphenyl]-3-yl)-4-(4-hydroxypiperidin-1-yl)-4,5,6,7-tetrahydropyrazolo[1,5-a]pyridine-2-carboxamide], 7.00 to 8.00.
